Values quoted from earlier work, collected in paper PMC6331757, “Optimization of a peptide extraction and LC–MS protocol for quantitative analysis of antimicrobial peptides” (Future Science OA, 2018).

Tested on: Gram-negative (e.g., Pseudomonas aeruginosa and Escherichia coli) and Gram-positive (e.g., Staphylococcus aureus) bacteria
Conditions: qualitative statement

VRLIVAVRIWRR [AMP 1018, synthetic antimicrobial peptide 1018 (…); also used as internal standard]
antibacterial activity (kills bacteria, disperses biofilms, inhibits bacterial swarming): potent antibacterial
